Assay results: patent US8541573B2, “Substituted sulfonamide compounds” (Gruenenthal GmbH, priority 2008, dated 2013)

Assays:
[1] = target: T1, B1R of rats (Rattus norvegicus, UniProt P97583); test: Functional investigation on the bradykinin 1 receptor (B1R), cell-based fluorescent calcium-mobilization assay (FLIPR/Novostar), rat; conditions: 10 μM test substance; CHO K1 cells stably transfected with rat B1R gene; agonist Des-Arg9-bradykinin at EC80; % inhibition compared with maximum achievable inhibition; read-out: B1R antagonism, rat [10 μM] % inhibition
T1 construct: expressed in transfected cells; host or cells: CHO K1 cells
T1 sequence (P97583 1-337): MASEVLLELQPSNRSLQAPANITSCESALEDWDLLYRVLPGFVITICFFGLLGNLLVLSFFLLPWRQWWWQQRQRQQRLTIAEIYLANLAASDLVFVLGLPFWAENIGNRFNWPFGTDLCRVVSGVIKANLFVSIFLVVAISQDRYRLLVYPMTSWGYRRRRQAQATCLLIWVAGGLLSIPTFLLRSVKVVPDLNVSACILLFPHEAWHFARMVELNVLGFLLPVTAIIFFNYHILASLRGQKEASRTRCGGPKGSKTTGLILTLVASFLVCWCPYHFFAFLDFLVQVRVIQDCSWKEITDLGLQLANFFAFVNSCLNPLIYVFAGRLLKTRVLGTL
Experimental: (§1) The agonistic or antagonistic action of substances can be quantified on the bradykinin 1 receptor (B1R) of the human and rat species with ectopically expressing cell lines (CHO K1 cells) and with the aid of a Ca^2+-sensitive dyestuff (Fluo-4) in a fluorescent imaging plate reader (FLIPR). The figure in % activation is based on the Ca^2+ signal after addition of Lys-Des-Arg^9-bradykinin (0.5 nM) or Des-Arg^9-bradykinin (100 nM). Antagonists lead to a suppression of the Ca^2+ inflow after addition of the agonist. % inhibition compared with the maximum achievable inhibition is stated.
(§2) The agonistic or antagonistic action of substances can be determined on the bradykinin 1 receptor (B1R) of humans and rats by means of a cell-based flourescent calcium-mobilization assay. According to this assay agonist-induced increase of intracellular free Ca^2+ is quantified by means of a Ca^2+-sensitive dye (Fluo-4 type, Molecular Probes Europe BV, Leiden, Netherlands), in a Fluorescent Imaging Plate Reader (FLIPR, Molecular Devices, Sunnyvale, USA) and/or the Novostar (BMG Labtech GmbH, Offenburg, Germany).
(§3) Chinese hamster ovary cells (CHO K1 cells), which are stably transfected with the human B1R gene (hB1R cells) or with the B1R gene of rats (rB1R cells), are used. For functional investigations these cells are seeded into black 96-well plates with a clear bottom (BD Biosciences, Heidelberg, Germany or Greiner, Frickenhausen, Germany) in a density of 20,000-35,000 cells/well. The cells are incubated overnight in a humidified atmosphere at 37° C. and 5% CO2 in culture medium (hB1R cells: Nutrient Mixture Ham's F12, Gibco Invitrogen GmbH, Karlsruhe, Germany or DMEM, Sigma-Aldrich, Taufkirchen, Germany; rB1R cells: D-MEM/F12, Gibco Invitrogen GmbH, Karlsruhe, Germany) with 10 vol. % FBS (foetal bovine serum, Gibco Invitrogen GmbH, Karlsruhe, Germany).
(§4) On the following day the cells are loaded with the Ca^2+-sensitive dye Fluo-4-AM (Molecular Probes Europe BV, Leiden, Netherlands):
(§5) Method A: The medium of the cells is removed and cell plates are incubated with loading solution, which contains 2.13 μM Fluo-4-AM, 2.5 mM probenecid (Sigma-Aldrich, Taufkirchen, Germany), and 10 mM HEPES (Sigma-Aldrich, Taufkirchen, Germany) in HBSS buffer (Hank's buffered saline solution, Gibco Invitrogen GmbH, Karlsruhe, Germany) for 60 minutes at 37° C. After the plates are washed twice with HBSS buffer, HBSS buffer supplemented 0.1% BSA (bovine serum albumin; Sigma-Aldrich, Taufkirchen, Germany), 5.6 mM glucose and 0.05% gelatine (Merck KGaA, Darmstadt, Germany) is added. Cell plates are incubated for at least 20 minutes in the dark at room temperature before they are used for the Ca^2+ measurement in the FLIPR or Novostar.
(§6) Method B: The plates are washed with buffer A (15 mM HEPES, 80 mM NaCl, 5 mM KCl, 1.2 mM CaCl2, 0.7 mM MgSO4, 2 mg/ml glucose, 2.5 mM probenecid) and subsequently loaded with buffer A containing 2.4 μM Fluo-4-AM and 0.025% pluronic F127 (Sigma-Aldrich, Taufkirchen, Germany) for 60 minutes at 37° C. Cell plates are washed twice with buffer A. Then, buffer A supplemented with 0.05% BSA and 0.05% gelatine is added and cell plates are incubated in the dark at room temperature for at least 20 minutes before measurement in the FLIPR or Novostar is started.
(§7) The Ca^2+-dependent fluorescence is measured both before and after the addition of substances (λex=488 nm, λem=540 nm). For quantification of the effect the highest fluorescence intensity (FC, fluorescence counts) over time is given. The FLIPR protocol consists of two substance additions, done within the instrument while continuously monitoring the Ca^2+-dependent fluorescence at 540 nm. When the Novostar was used, one addition had to be done outside the instrument. Test substances (10 μM) are initially pipetted onto the cells and the intracellular Ca^2+ rise is compared with the control (hB1R: Lys-Des-Arg9-bradykinin>=50 nM; rB1R: Des-Arg9-bradykinin>=1 μM). […]

[2] = target: T2, human B1R (Homo sapiens, UniProt P46663); test: Functional investigation on the bradykinin 1 receptor (B1R), cell-based fluorescent calcium-mobilization assay (FLIPR/Novostar), human; conditions: 10 μM test substance; CHO K1 cells stably transfected with human B1R gene; agonist Lys-Des-Arg9-bradykinin at EC80; % inhibition compared with maximum achievable inhibition; read-out: B1R antagonism, human [10 μM] % inhibition
T2 construct: expressed in transfected cells; host or cells: CHO K1 cells
T2 sequence (P46663 1-353): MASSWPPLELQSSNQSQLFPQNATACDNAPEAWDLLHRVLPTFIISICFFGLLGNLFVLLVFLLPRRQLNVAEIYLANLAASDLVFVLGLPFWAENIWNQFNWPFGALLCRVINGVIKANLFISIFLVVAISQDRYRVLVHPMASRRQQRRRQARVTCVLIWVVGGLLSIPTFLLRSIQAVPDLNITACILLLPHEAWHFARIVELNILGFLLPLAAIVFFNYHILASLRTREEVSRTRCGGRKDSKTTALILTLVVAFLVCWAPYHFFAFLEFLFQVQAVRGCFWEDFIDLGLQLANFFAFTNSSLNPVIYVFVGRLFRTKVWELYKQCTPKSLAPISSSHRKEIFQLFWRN
Experimental: as §1, §2, §3, §4, §5, §6, §7

SMILES | inhibition at 10 µM [1] | inhibition at 10 µM [2]
Cc1cc(S(=O)(=O)N2CCCCC2CCC(=O)N2CCC(CNC(=O)c3ccccn3)(N3CCN(C)CC3)CC2)c(C)cc1Cl (stereo not shown) [Example 9, N-((1-(3-(1-(4-chloro-2,5-dimethylphenylsulfonyl)piperidin-2-yl)propanoyl)-4-(4-methylpiperazin-1-yl)piperidin-4-yl)methyl)picolinamide] | 11% | 99%
Cc1cc(S(=O)(=O)N2CCCCC2CCC(=O)N2CCC(CNC(=O)Cc3ccccc3)(N3CCN(C)CC3)CC2)c(C)cc1Cl (stereo not shown) [Example 10, N-((1-(3-(1-(4-chloro-2,5-dimethylphenylsulfonyl)piperidin-2-yl)propanoyl)-4-(4-methylpiperazin-1-yl)piperidin-4-yl)methyl)-2-phenylacetamide] | 39% | 101%
CC(=O)NCC1(N2CCN(c3ccncc3)CC2)CCN(C(=O)CCC2CCCCN2S(=O)(=O)c2cc(C)c(Cl)cc2C)CC1 (stereo not shown) [Example 11, N-((1-(3-(1-(4-chloro-2,5-dimethylphenylsulfonyl)piperidin-2-yl)propanoyl)-4-(4-(pyridin-4-yl)piperazin-1-yl)piperidin-4-yl)methyl)acetamide] | 75% | 102%
CC(=O)NCC1(N2CCN(C)CC2)CCN(C(=O)CC2CCCCN2S(=O)(=O)c2cccc(C(F)(F)F)c2)CC1 (stereo not shown) [Example 12, N-((4-(4-methylpiperazin-1-yl)-1-(2-(1-(3-(trifluoromethyl)phenylsulfonyl)-piperidin-2-yl)acetyl)piperidin-4-yl)methyl)acetamide] | 13% | 80%
CN1CCN(C2(CNC(=O)Cc3ccccc3)CCN(C(=O)COCC3CCc4ccccc4N3S(=O)(=O)c3ccc(Cl)c(Cl)c3)CC2)CC1 (stereo not shown) [Example 13, N-((1-(2-((1-(3,4-dichlorophenylsulfonyl)-1,2,3,4-tetrahydroquinolin-2-yl)methoxy)acetyl)-4-(4-methylpiperazin-1-yl)piperidin-4-yl)methyl)-2-phenylacetamide] | 52% | 104%
CC(=O)NCC1(N2CCN(c3ccncc3)CC2)CCN(C(=O)CC(NS(=O)(=O)c2ccc3ccccc3c2)c2ccccc2)CC1 (stereo not shown) [Example 14, N-((1-(3-(naphthalene-2-sulfonamido)-3-phenylpropanoyl)-4-(4-(pyridin-4-yl)piperazin-1-yl)piperidin-4-yl)methyl)acetamide] | 82% | 100%
COc1cc(C)c(S(=O)(=O)N(C)CCOCC(=O)N2CCC(CNC(=O)Cc3ccccc3)(N3CCN(C)CC3)CC2)c(C)c1 [Example 15, N-((1-(2-(2-(4-methoxy-N,2,6-trimethylphenylsulfonamido)ethoxy)acetyl)-4-(4-methylpiperazin-1-yl)piperidin-4-yl)methyl)-2-phenylacetamide] | 101% | 103%

The next lines start with the values.

inhibition at 10 µM [1] | inhibition at 10 µM [2] | SMILES
31% | 94% | CN1CCN(C2(CNC(=O)c3ccccc3)CCN(C(=O)CC(NS(=O)(=O)c3ccc4ccccc4c3)c3ccccc3)CC2)CC1 (stereo not shown) [Example 16, N-((4-(4-methylpiperazin-1-yl)-1-(3-(naphthalene-2-sulfonamido)-3-phenylpropanoyl)piperidin-4-yl)methyl)benzamide]
101% | 104% | CC(=O)NCC1(N2CCN(c3ccncc3)CC2)CCN(C(=O)COCC2CCc3ccccc3N2S(=O)(=O)c2ccc(Cl)c(Cl)c2)CC1 (stereo not shown) [Example 17, N-((1-(2-((1-(3,4-dichlorophenylsulfonyl)-1,2,3,4-tetrahydroquinolin-2-yl)methoxy)acetyl)-4-(4-(pyridin-4-yl)piperazin-1-yl)piperidin-4-yl)methyl)acetamide]
17% | 97% | CN1CCN(C2(CNC(=O)c3ccccn3)CCN(C(=O)CC3CCCCN3S(=O)(=O)c3cccc(C(F)(F)F)c3)CC2)CC1 (stereo not shown) [Example 18, N-((4-(4-methylpiperazin-1-yl)-1-(2-(1-(3-(trifluoromethyl)phenylsulfonyl)-piperidin-2-yl)acetyl)piperidin-4-yl)methyl)picolinamide]
83% | 102% | CN1CCN(C2(CNC(=O)c3ccccn3)CCN(C(=O)CC(NS(=O)(=O)c3ccc4ccccc4c3)c3ccccc3)CC2)CC1 (stereo not shown) [Example 19, N-((4-(4-methylpiperazin-1-yl)-1-(3-(naphthalene-2-sulfonamido)-3-phenylpropanoyl)piperidin-4-yl)methyl)picolinamide]
60% | 91% | CN1CCN(C2(CNC(=O)c3ccccn3)CCN(C(=O)COCC3CCc4ccccc4N3S(=O)(=O)c3ccc(Cl)c(Cl)c3)CC2)CC1 (stereo not shown) [Example 20, N-((1-(2-((1-(3,4-dichlorophenylsulfonyl)-1,2,3,4-tetrahydroquinolin-2-yl)-methoxy)acetyl)-4-(4-methylpiperazin-1-yl)piperidin-4-yl)methyl)picolinamide]
101% | 103% | COc1cc(C)c(S(=O)(=O)N2CCCCC2COCC(=O)N2CCC(CNC(=O)c3ccccn3)(N3CCN(C)CC3)CC2)c(C)c1 (stereo not shown) [Example 21, N-((1-(2-((1-(4-methoxy-2,6-dimethylphenylsulfonyl)piperidin-2-yl)methoxy)acetyl)-4-(4-methylpiperazin-1-yl)piperidin-4-yl)methyl)picolinamide]
101% | 103% | COc1cc(C)c(S(=O)(=O)N2CCCCC2COCC(=O)N2CCC(CNC(C)=O)(N3CCN(c4ccncc4)CC3)CC2)c(C)c1 (stereo not shown) [Example 22, N-((1-(2-((1-(4-methoxy-2,6-dimethylphenylsulfonyl)piperidin-2-yl)methoxy)acetyl)-4-(4-(pyridin-4-yl)piperazin-1-yl)piperidin-4-yl)methyl)acetamide]
